Test results: patent US12138320B2, “Composition and methods for tumor imaging and treatment” (The University of Chicago, priority 2020, dated 2024)

Tests used:
[1] = tested on: other detected serine hydrolase targets; assay: Family-wide gel-based profiling of serine hydrolases in MDA-MB231 and PC3 cells (selectivity); type: cell-based, human; conditions: live cells
Description: Proteome Preparation: Human PC3 and MDA-MB231 cells were grown in Roswell Park Memorial Institute (RPMI) medium and Dulbecco's Modified Eagle Medium (DMEM), respectively, supplemented with 10% fetal bovine serum (FBS) and 2 mM L-glutamine, and cultured in a humidified 5% CO2 incubator at 37° C. Cells were washed twice with phosphate buffered saline (PBS, pH 7.5), collected by scraping, resuspended in 0.2 ml PBS, sonicated, and fractionated via centrifugation (100,000×g, 45 min) into a pellet (containing membrane proteins) and supernatant (containing soluble proteins). […] Protein concentrations were determined using a Bradford protein assay kit (Bio-Rad, Hercules, California, United States of America)). […]
Gel-based Activity Profiling: Cell lysates were treated with 1 μM fluorophosphonate-rhodamine (FP-rho) for 30 min at room temperature (50 μL total reaction volume). Reactions were quenched with one volume of standard 4× sodium dodecyl sulfate/polyacrylamide gel electrophoresis (SDS/PAGE) reducing sample buffer, resolved on 10% acrylamide SDS/PAGE gels, and visualized in-gel with a fluorescence scanner sold under the tradename CHEMIDOC™ MP (Bio-Rad, Hercules, California, United States of America). Densitometric quantification of band intensities were used to calculate the percent inhibition via JW199. […]

[2] = target: T1, NCEH1 (Homo sapiens, UniProt Q6PIU2); assay: Gel-based competitive ABPP (FP-Rho) of cancer cells treated in situ (live cells); type: cell-based; conditions: for potency against NCEH1 compared to JW199: MDA-MB231 cells treated in situ, 0-25 μM (FIG. 5B)
T1 construct: serine hydrolase activity in membrane proteome fractions of MDA-MB231 breast cancer cells treated with the indicated concentrations; endogenous in cells; host or cells: PC3 prostate cancer cells; MDA-MB231 breast cancer cells
T1 sequence (Q6PIU2 1-408): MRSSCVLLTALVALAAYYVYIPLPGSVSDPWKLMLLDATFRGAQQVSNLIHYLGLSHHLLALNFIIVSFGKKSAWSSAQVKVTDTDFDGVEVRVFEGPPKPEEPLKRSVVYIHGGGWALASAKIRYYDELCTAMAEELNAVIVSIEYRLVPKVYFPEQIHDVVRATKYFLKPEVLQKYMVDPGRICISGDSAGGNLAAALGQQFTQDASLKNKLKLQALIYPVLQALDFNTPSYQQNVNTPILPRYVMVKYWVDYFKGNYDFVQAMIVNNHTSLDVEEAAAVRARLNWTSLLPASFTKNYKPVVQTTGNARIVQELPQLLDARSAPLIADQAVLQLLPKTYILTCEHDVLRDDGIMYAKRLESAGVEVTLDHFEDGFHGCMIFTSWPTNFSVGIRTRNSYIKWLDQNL
Description: Proteome Preparation: Human PC3 and MDA-MB231 cells were grown in Roswell Park Memorial Institute (RPMI) medium and Dulbecco's Modified Eagle Medium (DMEM), respectively, supplemented with 10% fetal bovine serum (FBS) and 2 mM L-glutamine, and cultured in a humidified 5% CO2 incubator at 37° C. Cells were washed twice with phosphate buffered saline (PBS, pH 7.5), collected by scraping, resuspended in 0.2 ml PBS, sonicated, and fractionated via centrifugation (100,000×g, 45 min) into a pellet (containing membrane proteins) and supernatant (containing soluble proteins). For murine proteomes, mouse tissues were Dounce-homogenized on ice in cold PBS, followed by a low-speed spin (1,400×g, 5 min) to remove debris. After sonication, the membrane and soluble proteomes were fractionated as described above. All sample pellets were washed and resuspended in PBS via sonication. Protein concentrations were determined using a Bradford protein assay kit (Bio-Rad, Hercules, California, United States of America)). Samples were stored at −80° C. until use.
Cellular JW199 Treatments: JW199 was dissolved in dimethyl sulfoxide (DMSO) vehicle, which was diluted into media or buffer before addition to cells or proteomes, respectively. For in vitro proteome experiments, the final DMSO concentration was 4%. For live cell (in situ) treatments, 2×10^6 cells were seeded in 6 cm dishes (100% confluency) 24 hours prior to JW199 treatment in serum-free media. At the end of the experiment, cells were washed and collected, as described above, for gel-based activity profiling.
Gel-based Activity Profiling: Cell lysates were treated with 1 μM fluorophosphonate-rhodamine (FP-rho) for 30 min at room temperature (50 μL total reaction volume). Reactions were quenched with one volume of standard 4× sodium dodecyl sulfate/polyacrylamide gel electrophoresis (SDS/PAGE) reducing sample buffer, resolved on 10% acrylamide SDS/PAGE gels, and visualized in-gel with a fluorescence scanner sold under the tradename CHEMIDOC™ MP (Bio-Rad, Hercules, California, United States of America). Densitometric quantification of band intensities were used to calculate the percent inhibition via JW199. 50% inhibitory concentration (IC50) values were determined from dose-response curves constructed in GraphPad Prism software from three independent replicates for each inhibitor concentration. For competitive ABPP with JW576, tumor lysates were treated with 1 μM JW576 for 30 min at 37° C. (50 μL total reaction volume). Competitive ABPP was then conducted as described above. NCEH1 activity was calculated by densitometric quantification (ImageJ software; National Institutes of Health (NIH), Bethesda, Maryland, United States of America) of JW576-labeled band intensity (BODIPY fluorescence) from three independent replicates.

[3] = target: T2, NCEH1 (Mus musculus, UniProt Q8BLF1); assay: Gel-based competitive ABPP of murine tissue membrane proteomes after JW480 pre-treatment; type: in vivo; conditions: JW480 80 mg/kg; brain, heart, kidney, lung, liver, spleen membrane proteomes
T2 construct: For murine proteomes, mouse tissues were Dounce-homogenized on ice in cold PBS; from tissue; host or cells: athymic nude mice: heart, kidney, lung, liver, brain, spleen and other organs
T2 sequence (Q8BLF1 1-408): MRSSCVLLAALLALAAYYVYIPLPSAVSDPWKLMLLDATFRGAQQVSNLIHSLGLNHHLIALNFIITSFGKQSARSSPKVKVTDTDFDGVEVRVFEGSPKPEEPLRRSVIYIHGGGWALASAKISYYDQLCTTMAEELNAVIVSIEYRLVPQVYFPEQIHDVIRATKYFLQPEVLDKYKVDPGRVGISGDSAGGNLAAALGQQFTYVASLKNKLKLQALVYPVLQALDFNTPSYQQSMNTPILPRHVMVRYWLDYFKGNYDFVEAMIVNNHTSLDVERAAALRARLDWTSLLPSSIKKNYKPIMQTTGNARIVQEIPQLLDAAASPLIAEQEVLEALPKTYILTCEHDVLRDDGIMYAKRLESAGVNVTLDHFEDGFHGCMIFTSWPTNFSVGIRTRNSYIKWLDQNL
Text: FIGS. 9A and 9B: Gel-based competitive activity-based protein profiling (ABPP) profiles of several murine membrane proteomes following treatment with fluorine-18-labeled 2-isopropylphenyl-(4-(2-fluoroethoxy)phenethyl)carbamate ([^18F]JW199) with and without 2-isopropylphenyl)-(2-(naphthalen-2-yl)ethyl)carbamate (JW480; 80 milligrams per kilogram (mg/kg)). FIG. 9A is a schematic drawing showing the chemical structure of JW480. FIG. 9B is a composite gel image of the ABPP profiles of the murine membrane proteomes from brain, heart, kidney, lung, liver and spleen following treatment with [^18F]JW199 with or without JW480.
Proteome Preparation: Human PC3 and MDA-MB231 cells were grown in Roswell Park Memorial Institute (RPMI) medium and Dulbecco's Modified Eagle Medium (DMEM), respectively, supplemented with 10% fetal bovine serum (FBS) and 2 mM L-glutamine, and cultured in a humidified 5% CO2 incubator at 37° C. […] Protein concentrations were determined using a Bradford protein assay kit (Bio-Rad, Hercules, California, United States of America)). […]
Gel-based Activity Profiling: Cell lysates were treated with 1 μM fluorophosphonate-rhodamine (FP-rho) for 30 min at room temperature (50 μL total reaction volume). […] Densitometric quantification of band intensities were used to calculate the percent inhibition via JW199. […]

[4] = target: T2, NCEH1; assay: In vivo competition: oral JW480 pre-treatment, then i.v. [18F]JW199 and PET-CT
Description: In vivo microPET/CT imaging: All imaging was performed by the Integrated Small Animal Imaging Research Resource (iSAIRR) at the University of Chicago (Chicago, Illinois, United States of America) on a β-Cube and X-Cube (Molecubes NV, Ghent, Belgium). Athymic nude mice (males and females, aged 6 to 8 weeks; HSD strain, Harlan-Envigo, Indianapolis, Indiana, United States of America) were anesthetized via inhalation with 1.5-2% isoflurane and injected with approximately 150 μCi (5.55 Megabecquerel (MBq)) of [^18F]JW199 in 150 μL of physiologic saline through the lateral tail vein, followed by awake incubation for 1 hour and 45 minutes. MicroCT images were acquired using the general purpose protocol, with energy of 50 KeV and a tube current of 100 μA. Respiration rate and body temperature of the animal were constantly monitored during the entire scanning period with the p-Cube and X-Cube onboard monitoring system. A 1 hr dynamic PET acquisition was started 2 hours after [^18F]JW199 injection. Dynamic reconstruction was performed for 6 frames of 10 minutes each using a three-dimensional (3D) OSEM algorithm with 400 μm isometric voxel size. For competition studies, mice were pretreated with either 80 mg/kg JW480 or vehicle (polyethylene glycol 300 (PEG300)) via oral gavage, followed 4 hours later by dosing with [^18F]JW199 and imaging as described. For the MDA-MB231 study, [^18F]JW199 injection was followed immediately by dynamic PET acquisition (90 min) and microCT scanning as detailed above. Dynamic PET image reconstruction included 9 frames of 10 minutes each.
Dynamic reconstruction was performed using a three-dimensional OSEM algorithm with 400 μm isometric voxel size. […] 3D regions of interest (ROIs) were drawn and standardized uptake values (SUVs) and percent injected dose per cubic centimeter of tissue (% ID/cc) were calculated for each ROI and time point. % ID/cc was calculated as a ratio of tissue radioactivity concentration (mCi/g) at time of scan to total injected activity (millicurie (mCi)) at time of scan.

Structure (SMILES): CC(C)c1ccccc1OC(=O)NCCc1ccc(OCCF)cc1 [JW199, 2-isopropylphenyl-(4-(2-fluoroethoxy)phenethyl)carbamate]
- selectivity over other detected serine hydrolase targets [1]: > 1,000 fold
- IC50 values, inhibition of NCEH1 in live cells ([2]; in situ, MDA-MB231 and PC3 cells): low nM range

Structure (SMILES): CC(C)c1ccccc1OC(=O)NCCc1ccc(OCCCF)cc1 [JW245, 2-isopropylphenyl-(4-(3-fluoropropoxy)phenethyl)carbamate]
- potency against NCEH1 compared to JW199 [2]: less potent

Structure (SMILES): CC(C)c1ccccc1OC(=O)NCCNC(=O)c1ccc2cc(OCCF)ccc2c1 [JW291, 2-isopropylphenyl (2-(6-(2-fluoroethoxy)-2-naphthamido)ethyl)carbamate]
- potency against NCEH1 compared to JW199 [2]: less potent

Structure (SMILES): CC(C)c1ccccc1OC(=O)NCCc1ccc2ccccc2c1 [JW480, 2-isopropylphenyl-(2-(naphthalen-2-yl)ethyl)carbamate]
- inhibition of NCEH1 in tissues of pre-treated mice [3]: specific and significant inhibition
- effect of pre-treatment on radioactivity in urine and brain ([4]; JW480 80 mg/kg oral, 4 hours before tracer): slightly elevated radioactivity
- effect of pre-treatment on [18F]JW199 radiotracer signal in heart, lung and kidney ([4]; JW480 80 mg/kg oral, 4 hours before tracer, 3 hours post injection): significantly diminished radiotracer signal
- [18F]JW199 accumulation in kidneys and heart of competitor-treated mouse (PET-CT images) ([4]; JW480 oral, then i.v. tracer): visibly decreased
